Source: ChEMBL document CHEMBL3992492, “Sulfoximines from a Medicinal Chemist's Perspective: Physicochemical and in vitro Parameters Relevant for Drug Discovery” (Eur J Med Chem, 2017)
Converted amounts (≈) assume the structure as drawn.

Experiments:
[1] = physchem; conditions: aqueous
[2] = in vitro; conditions: human, liver microsomes
[3] = physchem; conditions: n-octanol/aqueous mixture, pH 2
[4] = in vitro; conditions: human, liver microsomes; remark: listed apart in the source
Description: Half life in human liver microsomes at 1 uM in presence of NADPH by LC-MS/MS method

[5] = physchem; conditions: aqueous/organic mixture, pH 2
[6] = physchem; conditions: n-octanol/aqueous mixture, pH 7.4
[7] = in vitro; conditions: PAMPA, pH 7.4
Description: Apparent permeability of the compound at pH 7.4 by PAMPA

[8] = physchem; conditions: acetonitrile/water mixture
Description: Solubility of the compound in acetonitrile/water mixture at 10 mM measured after 24 by HPLC-UV method

[9] = physchem; conditions: octanol/water, pH 10
[10] = Apparent partition coefficient, log P of the compound in n-octanol/aqueous mixture at pH 12 by potentiometric titration method; type: physicochemical; conditions: octanol/water
[11] = Dissociation constant, pKb of the compound in aqueous/organic mixture at pH 2 to 12 by potentiometric titration method; type: physicochemical; conditions: buffer
[12] = octanol/water, pH 7.4
[13] = Drug degradation in pH >10 NH3 after 7 days by HPLC method
[14] = Drug degradation in pH <1 HCl after 7 days by HPLC method
[15] = Dissociation constant, pKa of the compound; type: physicochemical
[16] = Dissociation constant, pKb of the compound in aqueous phase at pH 2 to 12 by potentiometric titration method; type: physicochemical; conditions: buffer
[17] = Apparent partition coefficient, log P of the compound in n-octanol/aqueous mixture at pH 3 by potentiometric titration method; type: physicochemical

Row | SMILES | solubility thermodynamic [1] [µg/mL] | hepatic extraction ratio at 1 µM [2] | logD [3] | half-life at 1 µM [4] [h] | pKa [5] | logD [6] | Papp [7] [×10⁻⁶ cm/s] | solubility at 10000 µM [8] [µg/mL] | logP [9] | logP [10] | pKb [11] | logD [12] | pKa [15] | pKb [16] | logD [17] | Drug degradation [13] [%] | Drug degradation [14] [%]
1 | CS(C)(=N)=Nc1ccc(C(F)(F)F)cc1 | 8400 (≈ 35600 µM) | < 0.23 | – | > 2.17 | – | – | 5.6 | > 51 | -0.5 | 1.8 | 4 | 1.8 | – | – | – | – | –
2 | CS(=O)(=O)NC(=O)Nc1ccc(C(F)(F)F)cc1 | 11100 (≈ 39300 µM) | < 0.23 | 1.9 | > 2.17 | 4.2 | -0.3 | 0.04 | 55 (≈ 195 µM) | – | – | – | – | – | – | – | – | –
3 | O=S1(c2ccc(C(F)(F)F)cc2)=NCCCC1 (configuration not stated) | 4700 (≈ 17900 µM) | < 0.23 | – | > 2.17 | – | – | 9.2 | > 59 | 0.2 | – | 3.8 | – | – | – | – | 34 | < 10
4 | CS(C)(=O)=N[C@H]1CC[C@@H](C(F)(F)F)CC1 | 300 (≈ 1230 µM) | < 0.23 | – | > 2.17 | – | – | 7.8 | – | – | 2.4 | 4.2 | 2.4 | – | – | – | – | –
5 | CS(=N)(=O)c1ccc(Cl)cc1 (configuration not stated) | – | – | – | – | – | – | – | – | – | – | – | – | 2.3 | – | – | – | –
6 | CS(=N)(=O)c1ccccc1 (configuration not stated) | – | – | – | – | – | – | – | – | – | – | – | – | 2.7 | – | – | – | –
7 | O=S1(=O)CCNCC1 | – | – | – | – | – | – | – | – | – | – | – | – | – | 5.4 | – | – | –
8 | N=S1(=Nc2ccc(C(F)(F)F)cc2)CCCCC1 | 500 (≈ 1810 µM) | 0.25 | – | 1.83 | – | – | 7.3 | 44 (≈ 159 µM) | 1.3 | – | 4 | – | – | – | – | < 10 | 13
9 | O=S1(=N[C@H]2CC[C@@H](C(F)(F)F)CC2)CCCCC1 | < 50 | 0.43 | – | 0.867 | – | – | 10 | – | – | 3.5 | 5 | 3.5 | – | – | – | – | –

Further lines, with some results ahead:

Row | solubility thermodynamic [1] [µg/mL] | hepatic extraction ratio at 1 µM [2] | logD [3] | half-life at 1 µM [4] [h] | pKa [5] | logD [6] | Papp [7] [×10⁻⁶ cm/s] | solubility at 10000 µM [8] [µg/mL] | logP [9] | logP [10] | pKb [11] | logD [12] | pKa [15] | pKb [16] | logD [17] | SMILES | Drug degradation [13] [%] | Drug degradation [14] [%]
10 | 900 (≈ 3760 µM) | < 0.23 | 2.3 | > 2.17 | 10.7 | 2.3 | 6.3 | > 49 | – | – | – | – | – | – | – | CNS(=O)(=O)c1ccc(C(F)(F)F)cc1 | – | –
11 | > 20000 | < 0.23 | 1.7 | > 2.17 | 3.2 | -1 | 0.01 | > 62 | – | – | – | – | – | – | – | CS(=O)(=O)NC(=O)c1ccc(C(F)(F)F)cc1 | – | –
12 | 800 (≈ 3550 µM) | < 0.23 | 1.4 | > 2.17 | 9.4 | 1.4 | 4.1 | > 48 | – | – | – | – | – | – | – | NS(=O)(=O)c1ccc(C(F)(F)F)cc1 | – | –
13 | 6900 (≈ 29000 µM) | 0.45 | – | 0.783 | – | – | 5.7 | – | -0.5 | 0.9 | 2.4 | 0.9 | – | – | – | CNS(=N)(=O)c1ccc(C(F)(F)F)cc1 (configuration not stated) | < 10 | 10
14 | 9100 (≈ 40800 µM) | < 0.23 | – | > 2.17 | – | – | 6.9 | > 50 | – | 2 | 2.5 | 2 | – | – | – | CS(=N)(=O)c1ccc(C(F)(F)F)cc1 (configuration not stated) | – | –
15 | 600 (≈ 2510 µM) | < 0.23 | – | > 2.17 | 8 | 1.9 | 5.1 | 47 (≈ 196 µM) | – | – | – | – | – | – | 2 | CS(=O)(=O)Nc1ccc(C(F)(F)F)cc1 | – | –
